Values of other authors as cited in patent publication US20030228635A1, “Cell proliferation assays and methods” (Renovar, Inc., priority 2002, published 2003).

Test system: cells
Settings: cells labelled with CFSE; Lyons and Parish 1994

In the case of “carboxy-fluorescein diacetate, succinimidyl ester [CFSE]”, the “effect on cellular function” value is listed as “does not adversely affect cellular function”.
